# From US11753407B2, “Compounds for treating spinal muscular atrophy” (PTC Therapeutics, Inc., priority 2012, dated 2023)
# How the values were obtained:
# [1] = system: Smn protein in SMA patient fibroblast cells (GM03813); assay: Smn protein assay in cultured cells (SMN HTRF); type: cell-based, human; conditions: SMA patient fibroblast cells, 48 hours; for maximum fold (Fold) increase of Smn protein: 7-point concentration data, fold relative to vehicle control; for EC1.5x for Smn protein expression: 7-point concentration curve, SMN HTRF, concentration producing 1.5 times Smn protein vs DMSO vehicle control
# Outline: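 Cells were cultured 72 h, seeded at 5,000/well and dosed with seven concentrations (3.16-fold apart) for 48 h. HTRF on lysates, read at 665 and 620 nm, gave blank-corrected ΔF values relative to DMSO. Potency is reported as EC1.5×, efficacy as maximal fold Smn increase.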
# [2] = system: SMN2 minigene mRNA (SMN2-A minigene) in HEK293H cells; assay: SMN2 minigene mRNA splicing RT-qPCR assay in cultured cells; type: cell-based, human; conditions: Homo sapiens, HEK293-H; concentration increasing full length SMN2 mRNA 1.5-fold relative to vehicle-treated cells; HEK293H cells with SMN2-A minigene, 24 hours, 7-point concentration data; read-out: EC1.5x for production of full length SMN2 mRNA
# Outline: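 EC1.5× values derive from a 24 h treatment of SMN2-A minigene HEK293H cells and GAPDH-normalized RT-qPCR of exon 7-included minigene mRNA relative to vehicle-treated cells.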
melting point,Compound,maximum fold (Fold) increase of Smn protein [1],EC (1.5-fold increase) [2],EC1.5x for Smn protein expression [1]
200 to 202 °C,"Cc1cn2cc(-c3cc(=O)n4cc(C5CCN(CCO)CC5)ccc4n3)ccc2n1 [Compound 576, 7-[1-(2-hydroxyethyl)piperidin-4-yl]-2-(2-methylimidazo[1,2-a]pyridin-6-yl)-4H-pyrido[1,2-a]pyrimidin-4-one]",***** (a fold increase >1.65 is indicated by five stars (*****)),< 0.1 µM,**** (an EC1.5x≤0.3 μM is indicated by four stars (****))
256 to 258 °C,"CN1CCC(c2ccc3nc(-c4ccc5nn(C)cc5c4)cc(=O)n3c2)CC1 [Compound 578, 2-(2-methyl-2H-indazol-5-yl)-7-(1-methylpiperidin-4-yl)-4H-pyrido[1,2-a]pyrimidin-4-one]",***** (a fold increase >1.65 is indicated by five stars (*****)),< 0.1 µM,**** (an EC1.5x≤0.3 μM is indicated by four stars (****))
277 to 280 °C,"Cc1cn2cc(-c3cc(=O)n4cc(C5CCN(C)CC5)ncc4n3)ccc2n1 [Compound 579, 2-(2-methylimidazo[1,2-a]pyridin-6-yl)-7-(1-methylpiperidin-4-yl)-4H-pyrazino[1,2-a]pyrimidin-4-one]",***** (a fold increase >1.65 is indicated by five stars (*****)),0.1 to 0.3 µM,*** (an EC1.5× between >0.3 μM and ≤1 μM is indicated by three stars (***))
160 to 162 °C,"Cn1cc2cc(-c3cc(=O)n4cc(N5CCNCC5)ncc4n3)ccc2n1 [Compound 586, 2-(2-methyl-2H-indazol-5-yl)-7-(piperazin-1-yl)-4H-pyrazino[1,2-a]pyrimidin-4-one]",***** (a fold increase >1.65 is indicated by five stars (*****)),0.1 to 0.3 µM,**** (an EC1.5x≤0.3 μM is indicated by four stars (****))
214 to 216 °C,"CCN1CCN(c2cn3c(=O)cc(-c4ccc5nn(C)cc5c4)nc3cn2)CC1 [Compound 590, 7-(4-ethylpiperazin-1-yl)-2-(2-methyl-2H-indazol-5-yl)-4H-pyrazino[1,2-a]pyrimidin-4-one]",**** (a fold increase between >1.5 and ≤1.65 is indicated by four stars (****)),0.3 to 1 µM,** (an EC1.5× between >1 μM and ≤3 μM is indicated by two stars (**))
200 to 202 °C,"Cn1cc2cc(-c3cc(=O)n4cc(N5CCN(CCO)CC5)ncc4n3)ccc2n1 [Compound 591, 7-[4-(2-hydroxyethyl)piperazin-1-yl]-2-(2-methyl-2H-indazol-5-yl)-4H-pyrazino[1,2-a]pyrimidin-4-one]",**** (a fold increase between >1.5 and ≤1.65 is indicated by four stars (****)),0.3 to 1 µM,** (an EC1.5× between >1 μM and ≤3 μM is indicated by two stars (**))
249 to 251 °C,"Cc1cn2cc(-c3cc(=O)n4cc(C5CCN(C)CC5)ncc4n3)cc(C)c2n1 [Compound 592, 2-(2,8-dimethylimidazo[1,2-a]pyridin-6-yl)-7-(1-methylpiperidin-4-yl)-4H-pyrazino[1,2-a]pyrimidin-4-one]",***** (a fold increase >1.65 is indicated by five stars (*****)),0.1 to 0.3 µM,*** (an EC1.5× between >0.3 μM and ≤1 μM is indicated by three stars (***))

# Further lines, the molecule ahead of its results:
Compound,melting point,maximum fold (Fold) increase of Smn protein [1],EC (1.5-fold increase) [2],EC1.5x for Smn protein expression [1]
"COc1ccc(-c2cc(=O)n3cc(N4CCC(CN5CCCC5)CC4)ccc3n2)cc1OC [Compound 574, 2-(3,4-dimethoxyphenyl)-7-[4-(pyrrolidin-1-ylmethyl)piperidin-1-yl]-4H-pyrido[1,2-a]pyrimidin-4-one]",194 to 196 °C,** (a fold increase between >1.2 and ≤1.35 is indicated by two stars (**)),0.3 to 1 µM,
"COc1ccc(-c2cc(=O)n3cc(N4CCC(CN5CCCCC5)CC4)ccc3n2)cc1OC [Compound 575, 2-(3,4-dimethoxyphenyl)-7-[4-(piperidin-1-ylmethyl)piperidin-1-yl]-4H-pyrido[1,2-a]pyrimidin-4-one]",184 to 186 °C,*** (a fold increase between >1.35 and ≤1.5 is indicated by three stars (***)),0.3 to 1 µM,
"Cc1cn2cc(-c3cc(=O)n4cc(C5=CCN(CCO)CC5)ccc4n3)ccc2n1 [Compound 577, 7-[1-(2-hydroxyethyl)-1,2,3,6-tetrahydropyridin-4-yl]-2-(2-methylimidazo[1,2-a]pyridin-6-yl)-4H-pyrido[1,2-a]pyrimidin-4-one]",248 to 250 °C,***** (a fold increase >1.65 is indicated by five stars (*****)),< 0.1 µM,**** (an EC1.5x≤0.3 μM is indicated by four stars (****))
"CCN1CCC(c2cn3c(=O)cc(-c4ccc5nc(C)cn5c4)nc3cn2)CC1 [Compound 580, 7-(1-ethylpiperidin-4-yl)-2-(2-methylimidazo[1,2-a]pyridin-6-yl)-4H-pyrazino[1,2-a]pyrimidin-4-one]",255 to 258 °C,***** (a fold increase >1.65 is indicated by five stars (*****)),< 0.1 µM,*** (an EC1.5× between >0.3 μM and ≤1 μM is indicated by three stars (***))
"Cc1cn2cc(-c3cc(=O)n4cc(C5CCN(CCO)CC5)ncc4n3)ccc2n1 [Compound 581, 7-[1-(2-hydroxyethyl)piperidin-4-yl]-2-(2-methylimidazo[1,2-a]pyridin-6-yl)-4H-pyrazino[1,2-a]pyrimidin-4-one]",250 to 252 °C,***** (a fold increase >1.65 is indicated by five stars (*****)),0.1 to 0.3 µM,*** (an EC1.5× between >0.3 μM and ≤1 μM is indicated by three stars (***))
"Cc1cn2nc(-c3cc(=O)n4cc(N5CCC(N(C)CCO)CC5)cc(C)c4n3)cc2c(C)n1 [Compound 582, 2-(4,6-dimethylpyrazolo[1,5-a]pyrazin-2-yl)-7-{4-[(2-hydroxyethyl)(methyl)amino]piperidin-1-yl}-9-methyl-4H-pyrido[1,2-a]pyrimidin-4-one]",250 to 259 °C,***** (a fold increase >1.65 is indicated by five stars (*****)),< 0.1 µM,**** (an EC1.5x≤0.3 μM is indicated by four stars (****))
"CCCNC1CCN(c2cc(C)c3nc(-c4cc5c(C)nc(C)cn5n4)cc(=O)n3c2)CC1 [Compound 583, 2-(4,6-dimethylpyrazolo[1,5-a]pyrazin-2-yl)-9-methyl-7-[4-(propylamino)piperidin-1-yl]-4H-pyrido[1,2-a]pyrimidin-4-one]",231 to 241 °C,***** (a fold increase >1.65 is indicated by five stars (*****)),< 0.1 µM,**** (an EC1.5x≤0.3 μM is indicated by four stars (****))
"Cc1cn2nc(-c3cc(=O)n4cc(N5CCC(C)(N)CC5)ccc4n3)cc2c(C)n1 [Compound 584, 7-(4-amino-4-methylpiperidin-1-yl)-2-(4,6-dimethylpyrazolo[1,5-a]pyrazin-2-yl)-4H-pyrido[1,2-a]pyrimidin-4-one]",200 to 203 °C,***** (a fold increase >1.65 is indicated by five stars (*****)),< 0.1 µM,**** (an EC1.5x≤0.3 μM is indicated by four stars (****))
"CCN1CCC(c2cn3c(=O)cc(-c4cc(C)c5nc(C)cn5c4)nc3cn2)CC1 [Compound 593, 2-(2,8-dimethylimidazo[1,2-a]pyridin-6-yl)-7-(1-ethylpiperidin-4-yl)-4H-pyrazino[1,2-a]pyrimidin-4-one]",242 to 244 °C,***** (a fold increase >1.65 is indicated by five stars (*****)),< 0.1 µM,**** (an EC1.5x≤0.3 μM is indicated by four stars (****))
"Cc1cn2cc(-c3cc(=O)n4cc(C5CCN(CCO)CC5)ncc4n3)cc(C)c2n1 [Compound 594, 2-(2,8-dimethylimidazo[1,2-a]pyridin-6-yl)-7-[1-(2-hydroxyethyl)piperidin-4-yl]-4H-pyrazino[1,2-a]pyrimidin-4-one]",242 to 244 °C,**** (a fold increase between >1.5 and ≤1.65 is indicated by four stars (****)),0.1 to 0.3 µM,*** (an EC1.5× between >0.3 μM and ≤1 μM is indicated by three stars (***))
"Cc1cn2cc(-c3cc(=O)n4cc(C5CCN(C(C)C)CC5)ncc4n3)cc(Cl)c2n1 [Compound 595, 2-(8-chloro-2-methylimidazo[1,2-a]pyridin-6-yl)-7-[1-(propan-2-yl)piperidin-4-yl]-4H-pyrazino[1,2-a]pyrimidin-4-one]",243 to 245 °C,**** (a fold increase between >1.5 and ≤1.65 is indicated by four stars (****)),< 0.1 µM,**** (an EC1.5x≤0.3 μM is indicated by four stars (****))
